“Also recorded” adds a separate entry of the source. Like-named read-outs stand apart in the source and are kept apart here.
Assays:
[1] = test system: VEGF-induced proliferation of HUVEC cells; test: VEGF-induced HUVEC proliferation, MTT assay; type: cell-based, human; details: for inhibition of VEGF-induced HUVEC proliferation (in words): 20 μM; for inhibition at 20 µM: Homo sapiens, read-out: % Inhibition of Proliferation
Experimental: The assay was performed as follows. Vascular endothelial growth factor (VEGF, Cat #SRP3182) was purchased from Sigma. […] Stock solutions of all compounds were prepared in DMSO and were serially diluted for cell culture treatment maintaining the final DMSO concentration at less than 1%. Cell proliferation of HUVECs was evaluated through the MTT (3-[4, 5-dimethylthiazol-2-yl]-2, 5-dimethyltetrazolium bromide) colorimetric assay, as previously described.^28 The HUVECs were seeded at a density of 10,000 cells/well in 24 well plates in serum-containing medium and cultured overnight. Cells were starved with 300 μL of assay media (0.1% BSA+0.1% FBS in basal medium) for 24 h. Then, cells were treated with 500 μL of assay medium (control group), VEGF (10 ng/mL, positive control group) or VEGF along with compounds (20 μM). After 48 h of culture, 50 μL of MTT stock (5 mg/mL in PBS) was added to each well and incubated for 2 h at 37° C. to allow the formation of dark blue formazan crystals in the metabolically active cells. The medium was removed, the cells were washed with PBS (pH 7.4), and 100 μL of acidified isopropanol (0.33 mL HCl in 100 mL isopropanol) was added to each well and incubated for 5 min with thorough agitation to solubilize the formazan crystals. An equal volume of the solution was transferred to a 96-well plate and the absorbance was immediately measured using a microplate reader at a wavelength of 570 nm.

[2] = test system: MDA-MB-468 triple negative breast cancer cells; test: MTS cytotoxicity assay in MDA-MB-468 triple negative breast cancer cells; type: cell-based; details: for effect on MDA-MB 468 TNBC cell viability: 10, 50 and 100 μM for 24, 48 and 72 hours, MTS; for IC50: Homo sapiens, MDA-MB-468, 72 hours, mean ± SD n = 3
Experimental: The assay was performed as follows.
Derivatives were dosed at 10, 50 and 100 μM for 24, 48 and 72 hours and cell viability measured by MTS assay (FIG. 5).

[3] = target: T1, Mitochondrial respiratory complex II (Rattus norvegicus, UniProt P21913+Q641Z9+Q6PCT8+Q920L2); test: Mitochondrial respiratory complex II inhibition assay; type: biochemical; details: for inhibition at 100 µM: read-out: inhibition of CII; for IC50: isolated rat heart mitochondria, mean ±SD of n = 4, read-out: CII IC50
T1 construct: measured spectrophotometrically using isolated rat heart mitochondria; from tissue; host or cells: rat heart mitochondria / sub-mitochondrial particles
Experimental: The assay was performed as follows. Mitochondria were isolated either from fresh rat hearts or by differential centrifugation in sucrose-based buffer as previously described.^24 Complex II enzymatic activity was determined spectrophotometrically as the rate of succinate-driven, co-enzyme Q2-linked reduction of dichlorophenolindophenol (DCPIP).^49 Mitochondria or sub-mitochondrial particles were incubated in phosphate buffer (pH 7.4) containing 40 μM DCPIP, 1 mM KCN, 10 μM rotenone, and 50 μM co-enzyme Q2. The rate of reduction of DCPIP to DCPIPH2 was followed at […] (ε=21,000 M-1). Varying amounts of succinate and inhibitors were used to determine an IC50 value. At the end of each run thenoyltrifluoroacetone (1 mM) was added and the residual TTFA-insensitive rate subtracted.

[4] = test system: 22Rv1 prostate cancer cells; test: MTS cytotoxicity assay in 22Rv1 prostate cancer cells; details: for cytotoxicity at 100 µM: Homo sapiens, 22Rv1, 48 h, read-out: reduction of 22Rv1 cell viability; for reduction of 22Rv1 cell viability: 100 μM, 48 hrs treatment, MTS
Experimental: The assay was performed as follows. To determine the cell growth inhibition ability of the synthesized compounds the (3-(4,5-dimethylthiazol-2-yl)-5-(3-carboxymethoxyphenyl)-2-(4-sulfophenyl)-2H-tetrazolium) (MTS) assay used according to the manufacturer's recommended protocol. Stock solutions of the synthesized compounds were prepared in DMSO. Cells were seeded at a density of 1×10^5 cells in 96-well plates. After 24 hours, cells were treated at the indicated concentrations of test compounds, limiting the final DMSO concentration to less than 1%. After incubation at 37° C. in an environment of 5% CO2 for 48-72 hours, 10 μL of MTS reagent (CellTiter 96© AQueous One Solution Reagent) was added to each well and incubated at the above mentioned conditions for 2-4 hr. Absorbance was recorded at 490 nm on a BioTek Synergy Mx multimode plate reader and the viability of cells were plotted as percentage of controls.

[5] = HUVEC, 48 h, 20 μM compound, VEGF 10 ng/mL, HUVEC, 48 h, relative to VEGF treated cells, mean ± SEM n = 3
[6] = 100 μM, relative to DMSO control

T1 sequence (Q920L2 35-656): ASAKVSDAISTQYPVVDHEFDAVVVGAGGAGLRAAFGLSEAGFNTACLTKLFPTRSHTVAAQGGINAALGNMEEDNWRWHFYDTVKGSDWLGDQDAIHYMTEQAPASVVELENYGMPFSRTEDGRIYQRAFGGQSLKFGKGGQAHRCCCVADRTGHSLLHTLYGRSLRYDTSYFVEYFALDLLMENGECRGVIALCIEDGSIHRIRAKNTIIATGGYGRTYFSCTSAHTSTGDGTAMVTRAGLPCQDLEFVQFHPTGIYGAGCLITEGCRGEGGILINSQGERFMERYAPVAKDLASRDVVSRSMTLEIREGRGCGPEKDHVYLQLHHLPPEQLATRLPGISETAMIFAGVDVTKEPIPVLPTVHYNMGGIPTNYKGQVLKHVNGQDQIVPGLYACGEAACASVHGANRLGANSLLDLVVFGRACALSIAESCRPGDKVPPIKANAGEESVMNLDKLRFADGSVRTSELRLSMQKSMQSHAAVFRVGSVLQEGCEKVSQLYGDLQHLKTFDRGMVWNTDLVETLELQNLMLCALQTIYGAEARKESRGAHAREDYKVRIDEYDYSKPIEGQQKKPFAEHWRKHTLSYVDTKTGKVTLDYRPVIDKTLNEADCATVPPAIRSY
T1 sequence (P21913 31-282): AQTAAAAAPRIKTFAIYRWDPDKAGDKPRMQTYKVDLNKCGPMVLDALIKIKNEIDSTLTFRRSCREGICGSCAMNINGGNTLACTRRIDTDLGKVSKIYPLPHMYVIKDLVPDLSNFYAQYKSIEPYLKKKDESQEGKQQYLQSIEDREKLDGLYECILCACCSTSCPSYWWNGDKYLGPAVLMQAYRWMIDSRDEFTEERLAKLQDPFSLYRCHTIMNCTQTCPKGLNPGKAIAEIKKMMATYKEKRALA
T1 sequence (Q641Z9 1-169): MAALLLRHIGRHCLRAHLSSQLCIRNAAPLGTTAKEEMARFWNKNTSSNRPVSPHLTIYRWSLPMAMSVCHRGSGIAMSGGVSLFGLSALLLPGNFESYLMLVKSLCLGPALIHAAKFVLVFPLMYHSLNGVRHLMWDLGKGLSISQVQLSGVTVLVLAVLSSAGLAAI
T1 sequence (Q6PCT8 57-159): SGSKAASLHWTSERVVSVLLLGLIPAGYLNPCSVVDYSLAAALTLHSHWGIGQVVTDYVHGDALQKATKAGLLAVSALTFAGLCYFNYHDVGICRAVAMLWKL

SMILES	inhibition at 100 µM [3, 6] [%]	inhibition of VEGF-induced HUVEC proliferation (in words) ([1]; VEGF 10 ng/mL)	inhibition at 20 µM [1, 5] [%]	effect on MDA-MB 468 TNBC cell viability [2]	cytotoxicity at 100 µM [4] [%]	also measured
O=S1(=O)N=C(NCCc2ccc(Cl)cc2)Nc2ccc(F)cc21 [Compound 37a, 3-((4-chlorophenethyl)amino)-7-fluoro-4H-benzo[e][1,2,4]thiadiazine 1,1-dioxide]	34					reduction of 22Rv1 cell viability [4]: inactive
O=S1(=O)NC(=S)Nc2ccc(F)cc21 [Compound 12a, 7-fluoro-3-thioxo-3,4-dihydro-2H-1,2,4-benzothiadiazine 1,1-dioxide]		no appreciable inhibition	50 ± 35	no reduction of cell viability		
CC(C)NC1=NS(=O)(=O)c2ccccc2N1C [Compound 43d, 3-(isopropylamino)-4-methyl-4H-benzo[e][1,2,4]thiadiazine 1,1-dioxide]				no reduction of cell viability		
O=S1(=O)NC(=S)Nc2cc(Cl)ccc21 [Compound 12b, 6-chloro-3-thioxo-3,4-dihydro-2H-1,2,4-benzothiadiazine 1,1-dioxide]	81		0		12	IC50 [3]: 11.9 µM
COc1ccc(CNC2=NS(=O)(=O)c3cc(Cl)ccc3N2)cc1 [Compound 56e, 7-Chloro-3-((4-methoxybenzyl)amino)-4H-benzo[e][1,2,4]thiadiazine 1,1-dioxide]		suppressed HUVEC proliferation; also recorded: enhanced activity	91 ± 15			IC50 [2]: 62.9 ± 4.2 µM
O=S1(=O)N=C(NCCc2ccccc2)Nc2ccc(Br)cc21 [Compound 18c, 7-bromo-3-(phenethylamino)-4H-benzo[e][1,2,4]thiadiazine 1,1-dioxide]				potent activity		inhibition at 20 µM ([1]; HUVEC, 48 h): 47 ± 24%
COc1ccc(CNC2=NS(=O)(=O)c3ccccc3N2)cc1 [Compound 20d, 3-((4-methoxybenzyl)amino)-4H-benzo[e][1,2,4]thiadiazine 1,1-dioxide]				no reduction of cell viability		
O=S1(=O)N=C(NCc2ccc(Cl)cc2)Nc2ccc(F)cc21 [Compound 16a, 3-((4-chlorobenzyl)amino)-7-fluoro-4H-benzo[e][1,2,4]thiadiazine 1,1-dioxide]						reduction of 22Rv1 cell viability [4]: inactive
Cc1ccc(CNC2=NS(=O)(=O)c3cc(Cl)ccc3N2)cc1 [Compound 61e, 7-Chloro-3-((4-methylbenzyl)amino)-4H-benzo[e][1,2,4]thiadiazine 1,1-dioxide]		suppressed HUVEC proliferation; also recorded: enhanced activity	119 ± 10			IC50 [2]: 43.1 µM
O=S1(=O)N=C(NCc2ccc(OC(F)(F)F)cc2)Nc2ccccc21 [Compound 30d, 3-((4-(trifluoromethoxy)benzyl)amino)-4H-benzo[e][1,2,4]thiadiazine 1,1-dioxide]					~30	
CC(C)C(C)NC1=NS(=O)(=O)c2cc(F)ccc2N1 (centres unmarked) [Compound 15a, 7-fluoro-3-((3-methylbutan-2-yl)amino)-4H-benzo[e][1,2,4]thiadiazine 1,1-dioxide]		no appreciable inhibition	76 ± 18	substantially less active		
O=S1(=O)N=C(NC2CCCC2)Nc2cc(Cl)ccc21 [Compound 22b, 6-chloro-3-(cyclopentylamino)-4H-benzo[e][1,2,4]thiadiazine 1,1-dioxide]					~35	IC50 [2]: 148 ± 26.3 µM

More lines, main results first:

inhibition at 100 µM [3, 6] [%]	SMILES	inhibition of VEGF-induced HUVEC proliferation (in words) ([1]; VEGF 10 ng/mL)	inhibition at 20 µM [1, 5] [%]	effect on MDA-MB 468 TNBC cell viability [2]	cytotoxicity at 100 µM [4] [%]	also measured
14	O=S1(=O)N=C(NCCCc2ccccc2)Nc2ccc(F)cc21 [Compound 23a, 7-fluoro-3-((3-phenylpropyl)amino)-4H-benzo[e][1,2,4]thiadiazine 1,1-dioxide]	no appreciable inhibition	0	almost complete amelioration of cell viability		% Inhibition of Proliferation ([1]; 20 μM compound, VEGF 10 ng/mL, HUVEC, 48 h, relative to VEGF treated cells, mean ± SEM n = 3): inactive
38	C=CCNC1=NS(=O)(=O)c2cc(F)ccc2N1 [Compound 32a, 3-(allylamino)-7-fluoro-4H-benzo[e][1,2,4]thiadiazine 1,1-dioxide]				24	
64	COc1ccc(CNC2=NS(=O)(=O)c3cc(Br)ccc3N2)cc1 [Compound 20c, 7-bromo-3-((4-methoxybenzyl)amino)-4H-benzo[e][1,2,4]thiadiazine 1,1-dioxide]			potent activity	41	IC50 [3]: 79.7 µM
17	O=S1(=O)N=C(NCCc2c[nH]c3ccccc23)Nc2ccc(F)cc21 [Compound 36a, 3-((2-(1H-indol-3-yl)ethyl)amino)-7-fluoro-4H-benzo[e][1,2,4]thiadiazine 1,1-dioxide]	no appreciable inhibition	41 ± 26	almost complete amelioration of cell viability	30	
51	CC(NC1=NS(=O)(=O)c2ccc(Cl)cc2N1)c1ccccc1 (centres unmarked) [Compound 24b, 6-chloro-3-((1-phenylethyl)amino)-4H-benzo[e][1,2,4]thiadiazine 1,1-dioxide]		38 ± 33		50	IC50 [3]: 89 µM
22	CC(NC1=NS(=O)(=O)c2cc(F)ccc2N1)c1ccccc1 (centres unmarked) [Compound 24a, 7-fluoro-3-((1-phenylethyl)amino)-4H-benzo[e][1,2,4]thiadiazine 1,1-dioxide]				34	
46	O=S1(=O)N=C(NCCCc2ccccc2)Nc2ccc(Br)cc21 [Compound 23c, 7-bromo-3-((3-phenylpropyl)amino)-4H-benzo[e][1,2,4]thiadiazine 1,1-dioxide]		24 ± 41		42	inhibition of CII [3, 6]: 47%
37	COc1ccccc1CNC1=NS(=O)(=O)c2cc(F)ccc2N1 [Compound 26a, 7-fluoro-3-((2-methoxybenzyl)amino)-4H-benzo[e][1,2,4]thiadiazine 1,1-dioxide]	no appreciable inhibition	29 ± 33	almost complete amelioration of cell viability		
55	CC(NC1=NS(=O)(=O)c2cc(Br)ccc2N1)c1ccccc1 (centres unmarked) [Compound 24c, 7-bromo-3-((1-phenylethyl)amino)-4H-benzo[e][1,2,4]thiadiazine 1,1-dioxide]				70	IC50 [3]: 79.8 µM
55	O=S1(=O)NC(=S)Nc2ccc(Br)cc21 [Compound 12c, 7-bromo-3-thioxo-3,4-dihydro-2H-1,2,4-benzothiadiazine 1,1-dioxide]				16	IC50 [3]: 37 µM
